HELM strings list units from the 5' end as sugar, base in round brackets, then linkage (d deoxyribose, r ribose, m 2'-O-methyl, p phosphodiester). Strings are as the collection lists them, not checked against the first reports. ss, as = sense and antisense strand; [lna] = locked nucleic acid (LNA); [s4r] = 4'-thioribose; [fl2r] = 2'-fluoro
Note: test system not given here.

For this data set the following is noted: siRNA.
Substance “RNA1{r(G)p.r(C)p.[fl2r](U)p.r(A)p.r(C)p.r(C)p.r(G)p.[fl2r](C)p.r(A)p.r(A)p.r(C)p.[fl2r](C)p.r(A)p.r(C)p.r(G)p.r(A)p.r(G)p.r(C)p.r(U)p.r(T)p.r(T)}|RNA2{r(A)p.r(G)p.r(C)p.r(U)p.r(C)p.r(G)p.[fl2r](U)p.r(G)p.r(G)p.r(U)p.[fl2r](U)p.r(G)p.r(C)p.r(G)p.r(G)p.[fl2r](U)p.r(A)p.r(G)p.r(C)p.r(T)p.r(T)}$$$RNA1{StrandType:ss}|RNA2{StrandType:as}$” came in with a target mRNA knockdown of 42%.

Substance “RNA1{r(C)p.r(U)p.r(U)p.r(A)p.r(C)p.r(G)p.r(C)p.r(U)p.r(G)p.r(A)p.r(G)p.r(U)p.r(A)p.r(C)p.r(U)p.r(U)p.r(C)p.r(G)p.r(A)p.d(T)p.d(T)}|RNA2{r(U)p.r(C)p.r(G)p.r(A)p.r(A)p.r(G)p.r(U)p.r(A)p.r(C)p.[lna](T)p.r(C)p.r(A)p.r(G)p.r(C)p.r(G)p.r(U)p.r(A)p.r(A)p.r(G)p.[lna](T)p.r(T)}$$$RNA1{StrandType:ss}|RNA2{StrandType:as}$” yielded a target mRNA knockdown of 93%.

In turn, “RNA1{r(A)p.r(G)p.r(A)p.r(A)p.r(G)p.[fl2r](U)p.r(A)p.r(C)p.[fl2r](C)p.r(A)p.r(G)p.r(G)p.r(A)p.r(G)p.r(G)p.r(C)p.r(G)p.r(U)p.r(U)p.r(T)p.r(T)}|RNA2{r(A)p.r(A)p.r(C)p.r(G)p.r(C)p.r(C)p.r(U)p.r(C)p.r(C)p.[fl2r](U)p.r(G)p.r(G)p.[fl2r](U)p.r(A)p.r(C)p.r(U)p.r(U)p.r(C)p.r(U)p.r(T)p.r(T)}$$$RNA1{StrandType:ss}|RNA2{StrandType:as}$” came in with a target mRNA knockdown of 57%.

As for “RNA1{r(U)p.r(C)p.m(U)p.r(A)p.m(C)p.r(A)p.r(C)p.r(C)p.r(G)p.m(C)p.r(G)p.r(C)p.m(C)p.r(C)p.r(C)p.r(C)p.r(C)p.r(U)p.r(C)p.r(T)p.r(T)}|RNA2{r(G)p.r(A)p.r(G)p.r(G)p.r(G)p.r(G)p.r(G)p.r(G)p.r(C)p.r(G)p.r(C)p.r(G)p.r(G)p.m(U)p.r(G)p.m(U)p.r(A)p.r(G)p.r(A)p.r(T)p.r(T)}$$$RNA1{StrandType:ss}|RNA2{StrandType:as}$”, the target mRNA knockdown was 73%.

For “RNA1{r(A)p.r(A)p.r(G)p.m(G)p.m(A)p.r(G)p.r(A)p.r(U)p.m(C)p.m(A)p.m(A)p.r(C)p.r(A)p.r(U)p.m(U)p.m(U)p.r(U)p.r(C)p.r(A)p.r(T)p.r(T)}|RNA2{m(U)p.m(G)p.m(A)p.r(A)p.r(A)p.m(A)p.m(U)p.m(G)p.r(U)p.r(U)p.r(G)p.m(A)p.m(U)p.m(C)p.r(U)p.r(C)p.m(C)p.m(U)p.m(U)p.r(T)p.r(T)}$$$RNA1{StrandType:ss}|RNA2{StrandType:as}$”, the target mRNA knockdown was determined as 38%.

Consider “RNA1{[s4r](C)p.[s4r](G)p.[s4r](U)p.[s4r](A)p.r(C)p.r(G)p.r(C)p.r(G)p.r(G)p.r(A)p.r(A)p.r(U)p.r(A)p.r(C)p.r(U)p.r(U)p.r(C)p.r(G)p.r(A)p.r(T)p.r(T)}|RNA2{r(U)p.r(C)p.r(G)p.r(A)p.r(A)p.r(G)p.r(U)p.r(A)p.r(U)p.r(U)p.r(C)p.r(C)p.r(G)p.r(C)p.r(G)p.[s4r](U)p.[s4r](A)p.[s4r](C)p.[s4r](G)p.r(T)p.r(T)}$$$RNA1{StrandType:ss}|RNA2{StrandType:as}$”, for which the target mRNA knockdown was found to be 86.1%.

“RNA1{m(U)p.r(A)p.r(A)p.r(A)p.r(C)p.r(U)p.r(U)p.m(U)p.r(G)p.r(G)p.r(G)p.r(G)p.r(A)p.r(A)p.r(G)p.r(G)p.r(G)p.r(A)p.r(G)p.r(T)p.r(T)}|RNA2{r(C)p.r(U)p.r(C)p.r(C)p.r(C)p.r(U)p.r(U)p.r(C)p.r(C)p.r(C)p.m(C)p.r(A)p.r(A)p.r(A)p.r(G)p.r(U)p.r(U)p.m(U)p.r(A)p.r(T)p.r(T)}$$$RNA1{StrandType:ss}|RNA2{StrandType:as}$” had a target mRNA knockdown of 67%.

The values above are taken from the OligoGym collection.
